Results as given in patent US11434240B2, “TYK2 inhibitors and uses thereof” (Nimbus Lakshmi, Inc., priority 2015, dated 2022).
One block for each molecule: values may come before it.

Key:
[1] = system: JAK2-pSTAT5 (GM-CSF induced pSTAT5); assay: GM-CSF induced pSTAT5 in human PBMC; type: cell-based; settings: 20 min, 5 ng/mL GM-CSF for 20 minutes, legend words it as IC50
Method: (§1) Human PBMC are isolated from buffy coat and are stored frozen for assays as needed. Cells for assay are thawed and resuspended in complete media containing serum, then cells are diluted to 1.67 E6 cells/ml so that 120 ul per well is 200,000 cells. 15 ul of compound or DMSO is added to the well at the desired concentrations and incubated at 1 hr at 37 C. 15 ul of stimulus (final concentration of 1.7 ng/mL IL-12) is added for 30 minutes prior to pSTAT4 and total STAT4 analysis using cell lysates prepared and analyzed by MSD reagents as per manufacturer protocol. The final DMSO concentration of compound in the assay is 0.1%.
Cells are prepared for analysis as in the above procedure and 15 ul of GM-CSF (final concentration 5 ng/mL) is added for 20 minutes prior to pSTAT5 and total STAT5 analysis using cell lysates prepared and analyzed by MSD reagents as per manufacturer protocol. The final DMSO concentration of compound in the assay is 0.1%.

[2] = system: Tyk2-pSTAT4 (IL-12 induced pSTAT4); assay: IL-12 induced pSTAT4 in human PBMC; type: cell-based; settings: 0.5 h, 1.7 ng/mL IL-12 for 30 minutes, legend words it as IC50
Method: as §1

JAK2 (Invitrogen) kinase = JAK2 (Invitrogen) kinase (Homo sapiens (Human), UniProt O60674); assay: JAK2 radioactive kinase assay; type: biochemical; settings: ATP at 10 μM
Method: Peptide substrate, [KKSRGDYMTMQIG], (20 μM) is prepared in reaction buffer (20 mM Hepes pH 7.5, 10 mM MgCl2, 1 mM EGTA, 0.02% Brij35, 0.02 mg/mL BSA, 0.1 mM […], 2 mM DTT, 1% DMSO. TYK2 (Invitrogen) kinase is added, followed by compounds in DMSO. ^33PATP is added to initiate the reaction with ATP at 10 μM. Kinase reaction is incubated for 120 min at room temp and reactions are spotted onto P81 ion exchange paper (Whatman #3698-915), and then washed extensively in 0.75% phosphoric acid, prior to reading the radioactivity counts. For JAK2 (Invitrogen) kinase assay the peptide substrate poly[Glu:Tyr](4:1), 0.2 mg/ml is used, in the reaction carried out the same as for TYK2.

JAK2 (Invitrogen) kinase, sequence (O60674 whole entry): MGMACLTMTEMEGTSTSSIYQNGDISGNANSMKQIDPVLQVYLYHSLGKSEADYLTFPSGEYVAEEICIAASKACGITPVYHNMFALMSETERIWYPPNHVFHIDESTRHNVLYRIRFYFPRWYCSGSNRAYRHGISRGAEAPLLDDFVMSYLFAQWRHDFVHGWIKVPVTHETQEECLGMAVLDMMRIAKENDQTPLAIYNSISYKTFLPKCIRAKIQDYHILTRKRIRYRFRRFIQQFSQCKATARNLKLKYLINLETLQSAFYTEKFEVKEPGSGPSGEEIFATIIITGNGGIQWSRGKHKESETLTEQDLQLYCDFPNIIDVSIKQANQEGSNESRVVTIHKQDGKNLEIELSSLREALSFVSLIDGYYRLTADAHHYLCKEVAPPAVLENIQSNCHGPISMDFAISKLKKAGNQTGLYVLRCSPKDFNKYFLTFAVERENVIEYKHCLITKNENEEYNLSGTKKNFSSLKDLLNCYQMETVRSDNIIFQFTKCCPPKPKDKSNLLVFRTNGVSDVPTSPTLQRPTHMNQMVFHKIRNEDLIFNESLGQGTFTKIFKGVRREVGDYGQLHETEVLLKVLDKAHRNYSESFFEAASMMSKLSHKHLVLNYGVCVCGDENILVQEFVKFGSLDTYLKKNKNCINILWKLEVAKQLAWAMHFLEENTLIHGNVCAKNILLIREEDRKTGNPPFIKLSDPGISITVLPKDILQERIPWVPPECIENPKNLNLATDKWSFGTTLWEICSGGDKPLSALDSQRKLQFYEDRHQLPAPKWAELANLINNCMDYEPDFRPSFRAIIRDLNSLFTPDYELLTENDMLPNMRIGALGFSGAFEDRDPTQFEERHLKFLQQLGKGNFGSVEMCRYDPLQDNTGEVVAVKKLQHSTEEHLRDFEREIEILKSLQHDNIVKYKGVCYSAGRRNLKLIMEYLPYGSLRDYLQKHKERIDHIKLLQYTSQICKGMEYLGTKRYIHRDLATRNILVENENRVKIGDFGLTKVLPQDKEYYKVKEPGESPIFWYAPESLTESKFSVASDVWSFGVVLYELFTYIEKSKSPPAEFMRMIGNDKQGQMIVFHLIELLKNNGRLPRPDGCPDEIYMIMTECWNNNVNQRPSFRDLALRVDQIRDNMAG

Compound: CN1CCN(c2ccn(-c3cc(-c4c(F)cccc4F)nc4c3C(=O)NC4)n2)CC1 [I-5, 2-(2,6-difluorophenyl)-4-(3-(4-methylpiperazin-1-yl)-1H-pyrazol-1-yl)-6,7-dihydro-5H-pyrrolo[3,4-b]pyridin-5-one]
EC50 [1]: > 2000 nM

EC50 ([1]; Homo sapiens, PBMC): 100 to 2000 nM
EC50 [2]: 100 to 2000 nM
Compound: N#Cc1cccc(F)c1-c1cc(-n2ccc(N3CCC(N4CCOCC4)CC3)n2)c2c(n1)CNC2=O [I-59, 3-fluoro-2-(4-(3-(4-morpholinopiperidin-1-yl)-1H-pyrazol-1-yl)-5-oxo-6,7-dihydro-5H-pyrrolo[3,4-b]pyridin-2-yl)benzonitrile]

Ki (JAK2 (Invitrogen) kinase): 0.1 to 10 nM
Compound: CO[C@@H]1CN(c2ccn(-c3cc(-c4c(F)cccc4C#N)nc4c3C(=O)NC4)n2)C[C@@H]1O [I-154, 3-fluoro-2-(4-(3-((3S,4R)-3-hydroxy-4-methoxypyrrolidin-1-yl)-1H-pyrazol-1-yl)-5-oxo-6,7-dihydro-5H-pyrrolo[3,4-b]pyridin-2-yl)benzonitrile]
